Experimental data: US20100179059A1, “Fungicidal Mixtures” (BASF SE, priority 2007, published 2010)
Where two headings read alike, the source gives them in different places.

Legend:
Type in all cases: cell-based
Botrytis cinerea = experiment: Activity against the grey mold Botrytis cinerea in the microtiterplate test
Pyricularia oryzae = conditions: active compound alone, 7 days after inoculation
Septoria tritici = experiment: Activity against leaf blotch on wheat caused by Septoria tritici (microtiter plate); conditions: active compound alone, 7 days after inoculation
[1] = Botrytis cinerea, 168 h, active compound alone, 7 days after inoculation, read-out: Observed efficacy
[2] = Botrytis cinerea, 168 h, active compound alone, 0.063 ppm, 7 days after inoculation, read-out: Observed efficacy

`OC(c1cccnc1)c1c(-c2cc(F)cc(F)c2)noc1-c1ccc(Cl)cc1` (centres unmarked) [Cmpd No. 124, 5-(4-Chlorophenyl)-3-(3,5-difluorophenyl)-4-[(3-pyridyl)-hydroxymethyl]-isoxazole] was tested. Which inhibition of growth at 0.001 ppm (Botrytis cinerea; [1]) did it give?
The inhibition of growth at 0.001 ppm was 1%.

Which inhibition of growth at 0.063 ppm (Botrytis cinerea; [2]) does the source give for `COC(=O)Nc1nc2ccccc2[nH]1` [Carbendazim, methyl (1H-benzoimidazol-2-yl)-carbamate, reference compound] here?
The inhibition of growth at 0.063 ppm was 74%.

What about the Observed efficacy (Pyricularia oryzae; 0.25 ppm) of the same molecule?
Its Observed efficacy is 30%.

With `OC(Cc1ccccc1Cl)(Cn1nc[nH]c1=S)C1(Cl)CC1` (centres unmarked) [Prothioconazol, 2-[2-(1-chlorocyclopropyl)-3-(2-chlorophenyl)-2-hydroxypropyl]-2,4-dihydro-[1,2,4]triazole-3-thione, reference compound] as the molecule, how does the inhibition of growth at 1 ppm (Botrytis cinerea; Botrytis cinerea, 168 h, active compound alone, 1 ppm, 7 days after inoculation, read-out: Observed efficacy) read?
Its inhibition of growth at 1 ppm is 46%.

With `OC(c1cccnc1)c1c(-c2ccc(Cl)cc2Cl)noc1-c1cccc(Cl)c1` (centres unmarked) [Cmpd No. 4, 5-(3-Chlorophenyl)-3-(2,4-dichlorophenyl)-4-[(3-pyridyl)hydroxymethyl]-isoxazole] as the molecule, how does the inhibition of growth at 0.001 ppm (Botrytis cinerea; [1]) read?
Its inhibition of growth at 0.001 ppm is 2%.

`CC(C)(C)c1onc(-c2ccc(Cl)cc2Cl)c1C(O)c1cccnc1` (centres unmarked) [Cmpd No. 7, 3-(2,4-Dichlorophenyl)-5-(1,1-dimethylethyl)-4-[(3-pyridyl)hydroxymethyl]-isoxazole] was tested. Which Observed efficacy (Pyricularia oryzae; 0.001 ppm) did it give?
The Observed efficacy was 2%.

Which results are given for `OC(c1cccnc1)c1c(-c2ccc(Cl)cc2F)noc1-c1ccccc1F` (centres unmarked) [Cmpd No. 144, 3-(4-Chloro-2-fluorophenyl)-4-[(3-pyridyl)-hydroxymethyl]-5-(2-fluorophenyl)-isoxazole]?
inhibition of growth at 0.00025 ppm (Botrytis cinerea; [1]): 4%; inhibition of growth at 0.001 ppm (Botrytis cinerea; [1]): 2%; Observed efficacy (Septoria tritici; 0.016 ppm): 16%

With `CC(C)OC(=O)N[C@H](C(=O)N[C@H](C)c1nc2ccc(F)cc2s1)C(C)C` [Benthivalicarb, isopropyl {(S)-1-[(1R)-1-(6-fluorobenzothiazol-2-yl)ethylcarbamoyl]-2-methylpropyl}carbamate, reference compound] as the molecule, how does the inhibition of growth at 0.063 ppm (Botrytis cinerea; Botrytis cinerea, 168 h, read-out: Observed efficacy) read?
The inhibition of growth at 0.063 ppm was 0%.

Which results are given for `Cc1cc(C)nc(Nc2ccccc2)n1` [Pyrimethanil, 4,6-dimethylpyrimidin-2-ylphenylamine, reference compound]?
inhibition of growth at 0.063 ppm (Botrytis cinerea; [2]): 5%; Observed efficacy (Septoria tritici; 16 ppm): 38%

How did the Observed efficacy (Septoria tritici; 4 ppm) turn out when “manganese ethylenebis(dithiocarbanate) zinc complex [Mancozeb]” was run?
The Observed efficacy was 52%.

How did the Observed efficacy (Pyricularia oryzae; 0.016 ppm) turn out when `COC(=O)N(OC)c1ccccc1COc1ccn(-c2ccc(Cl)cc2)n1` [Pyraclostrobin, reference compound] was run?
Its Observed efficacy is 67%.

Which Observed efficacy (Pyricularia oryzae; 1 ppm) does the source give for `OC(c1cccnc1)c1c(-c2ccc(Cl)cc2)noc1-c1ccc(F)cc1` (centres unmarked) [Cmpd No. 88, 3-(4-Chlorophenyl)-5-(4-fluorophenyl)-4-[(3-pyridyl)-hydroxymethyl]-isoxazole] here?
Its Observed efficacy is 3%.

With “zinc propylenebis(dithiocarbamate) polymer [Propineb, reference compound]” as the molecule, how does the Observed efficacy (Botrytis cinerea; active compound alone, 4 ppm, 7 days after inoculation) read?
Its Observed efficacy is 32%.

What does the source list for `OC(c1cccnc1)c1c(-c2ccc(F)cc2)noc1-c1ccccc1Cl` (centres unmarked) [Cmpd No. 90, 5-(2-Chlorophenyl)-3-(4-fluorophenyl)-4-[(3-pyridyl)-hydroxymethyl]-isoxazole]?
inhibition of growth at 4e-06 ppm (Botrytis cinerea; Botrytis cinerea, 168 h, active compound alone, 0.000004 ppm, 7 days after inoculation, read-out: Observed efficacy): 5%; inhibition of growth at 1.6e-05 ppm (Botrytis cinerea; Botrytis cinerea, 168 h, active compound alone, 0.000016 ppm, 7 days after inoculation, read-out: Observed efficacy): 5%; inhibition of growth at 6.3e-05 ppm (Botrytis cinerea; Botrytis cinerea, 168 h, active compound alone, 0.000063 ppm, 7 days after inoculation, read-out: Observed efficacy): 1%; inhibition of growth at 0.00025 ppm (Botrytis cinerea; [1]): 1%; Observed efficacy (Septoria tritici; 0.00025 ppm): 9%; Observed efficacy (Pyricularia oryzae; 0.000063 ppm): 6%

Which results are given for `OC(c1cccnc1)c1c(-c2ccc(F)cc2F)noc1-c1ccc(Cl)cc1F` (centres unmarked) [Cmpd No. 145, 3-(2,4-Difluorophenyl)-4-[(3-pyridyl)-hydroxymethyl]-5-(4-chloro-2-fluorophenyl)-isoxazole]?
inhibition of growth at 0.001 ppm (Botrytis cinerea; [1]): 20%; Observed efficacy (Pyricularia oryzae; 0.000063 ppm): 10%

`Fc1ccc([C@]2(Cn3cncn3)O[C@H]2c2ccccc2Cl)cc1` (racemic) [Epoxiconazol, (2RS,3SR)-1-[3-(2-chlorophenyl)-2,3-epoxy-2-(4-fluorophenyl)propyl]-1H-1,2,4-triazole, reference compound] was tested. Which inhibition of growth at 0.25 ppm (Botrytis cinerea; Botrytis cinerea, 168 h, active compound alone, 0.25 ppm, 7 days after inoculation, read-out: Observed efficacy) did it give?
The inhibition of growth at 0.25 ppm was 37%.

And the Observed efficacy (Septoria tritici; 0.063 ppm)?
The Observed efficacy was 66%.
